Laboratory results from a melting point compilation (Tetko et al.; mined from patent text by program, amines drawn as free bases though some values may be those of a salt).

Row | Structure (SMILES) | melting point [°C]
1 | CC(CN(C(C)C)C(C)C)N1C(=O)/C(=N/NC(N)=O)c2ccccc21 (stereo unspecified) | 195 to 197
2 | CC1CC2=CC(=O)CCC2C2C(F)CC3(C)C(=O)CCC3C12 (stereo unspecified) | 84.8
3 | c1ccc2c(c1)CNC1CC2c2ccccc21 (stereo unspecified) | 115 to 117
4 | N#Cc1ccc2c(c1)CCC1CC(=O)NN=C21 (stereo unspecified) | 292 to 295
5 | O=C(O)c1c(Cl)ccc([N+](=O)[O-])c1Nc1ccc(OCc2ccccc2)cc1 | 172 to 174
6 | CCCN(CCC)CCOc1ccc(NC(=O)c2c(OC)cccc2OC)cc1 | 116 to 120
7 | CC(C)C(=O)O[C@H]1[C@H](C)OC(=O)[C@@H](NC(=O)OC(C)(C)C)COC(=O)[C@@H]1CSc1ccccn1 | 54 to 58
8 | S=C=Nc1ccc2oc(-c3sccc3CN3CCOCC3)nc2c1 | 117 to 118
9 | COc1cccc2c1CN(c1c(F)cc3c(=O)c(C(=O)O)cn(-c4ccc(F)cc4F)c3c1F)C2 | 262 to 271
10 | OCc1ccc(OCCCCl)cc1 | 65
11 | Oc1ccc2oc(-c3cc(OCc4ccccc4)c(O)cc3-c3ccccc3)cc2c1 | 186 to 187
12 | C=CCCn1c(=O)c2c(ncn2CCC)n(C)c1=O | 48
13 | ClC(Cl)(Cl)c1cccc2nnsc12 | 67 to 69
14 | O=C(O)C(=NOC1CCCC1)c1ccco1 | 96.6 to 97.7
15 | COC(=O)C1=C(C)NC2=C(C(=O)OC2)C1c1cccc(Br)c1 (stereo unspecified) | 229 to 231
16 | CCCCOC(=O)c1ccc(N2CCN(CC=Cc3ccc(Cl)cc3)CC2)cc1 | 115 to 117
17 | Cc1ccc2c(c1)C=C(C(=O)O)C(C(F)(F)F)O2 (stereo unspecified) | 192 to 193
18 | CC(=O)N1CCC(n2cc(C3=C(c4cn(C)c5ccccc45)C(=O)NC3=O)c3ccccc32)CC1 | > 293
19 | COC(=O)C(C)c1ccc2c(c1)Cc1cc([N+](=O)[O-])ccc1-2 (stereo unspecified) | 105 to 107
20 | N#Cc1c(N2CCCN(c3ccc(F)c(F)c3)CC2)cc[nH]c1=S | 250 to 251
21 | CC(C)C(=O)N1N=Cc2ccccc2C1C#N (stereo unspecified) | 144 to 146
22 | O=c1nc(N2CCN(c3ccccc3F)CC2)sc2c([N+](=O)[O-])cc(C(F)(F)F)cc12 | 164 to 168
23 | CCCCOCCOc1ccc(-c2ccc3c(c2)C=C(C(=O)O)CCN3Cc2ccccc2)cc1 | 133 to 138
24 | COc1cc2c(cc1OC)-c1c(C#N)sc(=NC(=O)c3ccccc3)n1CC2 | 274 to 276
25 | CCOC(=O)c1c(N)c(C)nn1C | 55.5 to 56.5
26 | Cc1c(Nc2ccc(Br)cc2C(=O)O)cccc1C(F)(F)F | 223 to 225
27 | CCn1ncc2nc(C(=O)N3CCN(C)CC3)c(-c3ccccc3)nc21 | 170 to 171

Row | Structure (SMILES) | melting point [°C]
28 | Cc1csc(N2CCN(Cc3ccc(C(=O)O)cc3)C2=O)n1 | 222 to 224
29 | CCOC(=O)c1ccc(/C=C/c2ccc(O)c(C3(C)CCCCC3)c2)cc1 | 149
30 | C=CC(c1ccccc1)c1c(C)c(OC(C)=O)c(C)c(C)c1O (stereo unspecified) | 136 to 138
31 | Cc1nc2c(OCc3c(Cl)ccc(N(C)C)c3Cl)cccn2c1Br | 120 to 122
32 | CNC(=O)N=C(NC(=O)Nc1ccc(Cl)cc1)OC | 169 to 171
33 | CC(=O)Nc1ccc2c(c1)C(CN1CCC(c3ccc(F)cc3)CC1)CC2 (stereo unspecified) | 145 to 146
34 | CCC(=O)N[C@@H]1CCc2ccc(OC)cc2[C@H]1O | 162 to 163
35 | CC1=C(C(=O)OC2CCCC2)C(c2c(F)cccc2Cl)C(C(=O)n2ccnc2)=C(C)N1 (stereo unspecified) | 150
36 | CCOC(=O)N1C=CN(c2ccccc2)C1C#N (stereo unspecified) | 109 to 111
37 | CCOc1cc(=O)n(-c2ccc([N+](=O)[O-])cc2)[nH]1 | 143
38 | COC(=O)c1cccc(C2C(C#N)=C(N)Oc3c2ccc2cccnc32)c1 (stereo unspecified) | 198 to 200
39 | COc1cc2c(cc1OC)CCC(N(Cc1ccccc1)C(=O)c1ccc(C)cc1)=C2 | 183 to 185
40 | O=S(=O)(c1ccc(Cl)c2ccccc12)N1CC2CCC(CC2)C1 | 134 to 137
41 | CC(=O)NC[C@H]1CN(c2ccc(C3=CCN(C(=O)OCc4ccccc4)CC3)cc2)C(=O)O1 | 166 to 169
42 | COC(=O)C1Cc2c([nH]c3ccccc23)C(c2cc(OC)ccc2OC)N1C(=O)CCl (stereo unspecified) | 108 to 111
43 | CC1CC2C3CCC4=CC(=O)C=CC4(C)C3(F)C(O)CC2(C)C1(O)C(=O)COC(=O)c1cccnc1 (stereo unspecified) | 262 to 265
44 | NC(=O)c1sc2nccc(N3CCC(c4ccccc4)CC3)c2c1N | 226 to 233
45 | O=[N+]([O-])c1ccc(N(CCO)CCO)cc1F | 99 to 101
46 | CC(CNc1cccc(-c2ccnc3c(C(=O)c4cccs4)cnn23)c1)c1ccccc1 (stereo unspecified) | 108 to 110
47 | CCOC(=O)C(O)CCc1ccc(OCCc2nc(-c3ccccc3)oc2C)cc1 (stereo unspecified) | 67 to 68
48 | O[C@@H]1CN(C[C@H](O)c2ccccc2)CC[C@H]1CCOC(c1ccccc1)c1ccccc1 | 84 to 86
49 | CN1Cc2cccnc2N(c2cccc(F)c2)C1=O | 189 to 192
50 | Cc1sc(N)c(C(=O)c2cccc3ccccc23)c1C | 195 to 197
51 | CCCC(=O)CCCCCC(=O)N[C@@H](C)C(=O)OC | 51 to 54
52 | C(=C\c1c[nH]c2ccccc12)/c1cc(/C=C/c2ccccc2OCc2ccccn2)[nH]n1 | 114 to 125
53 | O=C(NCCc1cccc2ccc(OC3C=CCCC3)cc12)C1CCC1 (stereo unspecified) | 104 to 106
54 | Fc1ccc2nc[nH]c2c1 | 194 to 196

More lines, now with the values ahead:

Row | melting point [°C] | Structure (SMILES)
55 | 55 to 64 | O=C(O)CCC1(c2cccs2)SCCS1
56 | 171 to 172 | O=C1Cc2cc([N+](=O)[O-])ccc2Sc2ccccc21
57 | 233 to 234 | CC(C)(CCC#N)c1ccc(C(=O)Nc2cn3cc(C(F)(F)F)ccc3n2)cc1
58 | 250 to 252 | O=C(O)COc1c(I)cc(-c2c3ccccc3cc3sc4ccccc4c23)cc1I
59 | 156 to 158 | Cc1ccc(C(=O)NC(NC(=S)Nc2cccnc2)c2ccccc2)cc1 (stereo unspecified)
60 | 105 to 107 | CCN(CC)CCOCCC1CCCCN1C(=O)N1c2ccccc2NC(=O)c2csc(C)c21 (stereo unspecified)
61 | > 300 | Cc1[nH]c(=O)c(C#N)cc1-c1ccc2nccn2c1
62 | 93 to 94 | CCCCS(=O)(=O)Nc1ccccc1OCc1ccc2ccccc2n1
63 | 89 to 91 | COCCOCOc1ccccc1N1C(C(C)(C)C)ONC1(Br)C(C)(C)C (stereo unspecified)
64 | 142 to 144 | Cc1c(CN(C)CCc2ccc(NS(C)(=O)=O)cc2)oc2ccc(NS(C)(=O)=O)cc12
65 | 85 to 86 | OCc1nccc(N2CCCC2)c1Cl
66 | 142 to 144 | CCCOCCOc1ccc(-c2ccc3c(c2)C=C(C(=O)O)CCCN3CC(C)C)cc1
67 | 121 to 122 | CCCc1nc(OC)c(NC(=O)N2CCN(c3cc(OC)cc(OC)c3)CC2)cc1C
68 | 265 to 266 | NC(=O)c1cc(C(=O)O)c2c(c1)C(C(=O)O)CCN2 (stereo unspecified)
69 | 257 to 258 | N#Cc1c(I)[nH]c(I)c1I
70 | 81 to 83 | Cn1c(=O)c2c(ncn2CC(O)COC(=O)COc2ccc(Cl)cc2)n(C)c1=O (stereo unspecified)
71 | 107 to 108 | CCOC(=O)c1cc(=O)c2ccc(OCCCCl)cc2o1
72 | 106 | Cc1ccc(Oc2ccc(Oc3ccc(C)c(C)c3)cc2)cc1C
73 | 144 | C#CCOCc1c(C)nc2c(OCc3ccccc3C#N)cccn12
74 | 138 | Cc1cc(Cc2cc(C(C)(C)CC(C)(C)C)cc(C(C)(C)CC(C)(C)C)c2O)c(O)c(-n2nc3ccccc3n2)c1
75 | 195 to 202 | O=C(O)[C@H]1Cc2ccccc2CN1S(=O)(=O)c1ccc(-c2ccccc2)cc1
76 | 123 to 124 | COC(=S)c1ccc2ccc(C(=O)N(C)C)cc2c1
77 | 82 to 85 | CC(C)c1c(Br)ccc(N)c1C#N
78 | 224 to 226 | COC(=O)c1cc(OC)c(Cc2c(N)nc(N)nc2O)c(OC)c1

Row | melting point [°C] | Structure (SMILES)
79 | 233 to 235 | CC(=O)OC1=C(c2ccc(C)cc2)Sc2cc(C)ccc2NC1=O
80 | > 250 | O=C(O)c1cc([N+](=O)[O-])cc2c1Nc1cc(-c3ccccc3)ccc1O2
81 | 219 | COP(=O)(OC)c1cc(O)c2c(=O)cc(-c3ccccc3)oc2c1
82 | 248 | COC(=O)CN1C(=O)c2c(c3cc(C)ccc3n2C)S1(=O)=O
83 | 99.5 | COc1cc(-c2ccccc2F)nc(-c2cccc(C)n2)n1
84 | 158 to 161 | Cc1ccc(S(=O)(=O)Nc2nc(-c3ccc(OCc4ccccc4)c(OCc4ccccc4)c3)cs2)cc1
85 | 130 to 131 | CC1(COC(=O)Oc2c(F)c(F)c(F)c(F)c2F)COC(=O)OC1
86 | 178 to 181 | O=C(c1ccc([N+](=O)[O-])o1)N1CCN(CC(O)COc2cccc3[nH]c4ccccc4c23)CC1 (stereo unspecified)
87 | 118 to 120 | CCOCCOC(=O)C(=O)Nc1nc(-c2ccc(OC)cc2OC)cs1
88 | 149 to 151 | O=c1[nH]c2ccccc2c(=O)n1CCOCCO
89 | 179 to 180 | CC(=O)Nc1c([N+](=O)[O-])c(Br)nn1-c1c(Cl)cc(C(F)(F)F)cc1Cl
90 | 172 to 173 | CCCNc1cc(=O)[nH]c(-c2ccccc2OCCC)n1
91 | 117 to 118 | O=C1N=CN(CC2CCCCC2)C12CCN(Cc1ccccc1)CC2
92 | 145 to 147 | CCn1nc(C)c2c1C1=NC(C)CN1C(C)=N2 (stereo unspecified)
93 | 111 to 112 | O=C(O)CCc1cn(Cc2ccc(OCc3csc(-c4ccccc4)n3)cc2)cc1-c1ccccc1
94 | 146 | CN1Cc2ccc(Cl)c3scc(c23)S1(=O)=O
95 | 243 to 244 | CCc1nc2c(C)cc(C)nc2n1Cc1ccc(C2(C(=O)O)Cc3ccccc3C2)s1
96 | 140 to 142 | CC(C)(C)c1cc(Nc2ccc(CCC(=O)O)cc2)cc(C(C)(C)C)c1O
97 | 88 | CCOC(=O)C1=C(N(C)C)N=C(C)C(C(=O)OCC)C1c1ccccc1C (stereo unspecified)
98 | 118 to 119 | COC(=O)c1ccc2c(Cl)ccnc2c1
99 | 298 to 299 | CCCCc1nc2ccc(C)c(C(=O)O)c2n1Cc1ccc(-c2ccccc2-c2nnn[nH]2)cc1
100 | 138 to 140 | O=[N+]([O-])c1cc(C(F)(F)F)cc([N+](=O)[O-])c1Nc1c(Cl)cncc1Cl
101 | 148 to 149 | CC1=C(Cc2ccc(NC(=O)OC(C)(C)C)cc2)C(=O)C2C=CC=CC2C1=O (stereo unspecified)
